Among the data in ChEMBL document CHEMBL5036317, “Identification of Unique Quinazolone Thiazoles as Novel Structural Scaffolds for Potential Gram-Negative Bacterial Conquerors” (J Med Chem, 2021) are MIC and HC50 values, retold here.

≈ marks a conversion by molar mass, not a printed value.

The test system of data set [1] is Staphylococcus aureus. In words: Antibacterial activity against Staphylococcus aureus ATCC 25923 assessed as inhibition of bacterial growth measured after 24 hrs by two-fold serial dilution method. The data set is classed as functional.
Data set [2] concerns Escherichia coli. In words: Antibacterial activity against Escherichia coli assessed as inhibition of bacterial growth measured after 24 hrs by two-fold serial dilution method. The class given is functional.
A short description of data set [3]: Haemolytic activity in human erythrocytes incubated for 2 hrs. The data set is classed as ADME, cell-based, Erythrocyte.
The subject of data set [4] is Escherichia coli. In words: Antibacterial activity against Escherichia coli ATCC 25922 assessed as inhibition of bacterial growth measured after 24 hrs by two-fold serial dilution method. The class given is functional.
The test system of data set [5] is Pseudomonas aeruginosa. In words: Antibacterial activity against Pseudomonas aeruginosa assessed as inhibition of bacterial growth measured after 24 hrs by two-fold serial dilution method. The data set is classed as functional.
Data set [6] deals with Staphylococcus aureus. In words: Antibacterial activity against Staphylococcus aureus assessed as inhibition of bacterial growth measured after 24 hrs by two-fold serial dilution method. The class given is functional.
The subject of data set [7] is Staphylococcus aureus. Nature of the data set: Antibacterial activity against methicillin-resistant Staphylococcus aureus assessed as inhibition of bacterial growth measured after 24 hrs by two-fold serial dilution method. The data set is classed as functional.
Data set [8] deals with Enterococcus faecalis. Nature of the data set: Antibacterial activity against Enterococcus faecalis assessed as inhibition of bacterial growth measured after 24 hrs by two-fold serial dilution method. The data set is classed as functional.
Data set [9] deals with Acinetobacter baumannii. In words: Antibacterial activity against Acinetobacter baumanii assessed as inhibition of bacterial growth measured after 24 hrs by two-fold serial dilution method. The data set is classed as functional.
For data set [10], the system named is Klebsiella pneumoniae. In words: Antibacterial activity against Klebsiella pneumoniae assessed as inhibition of bacterial growth measured after 24 hrs by two-fold serial dilution method. The class given is functional.
Data set [11] has as its system Staphylococcus aureus. In words: Antibacterial activity against Staphylococcus aureus ATCC 29213 assessed as inhibition of bacterial growth measured after 24 hrs by two-fold serial dilution method. The data set is classed as functional.
Data set [12] has as its system Pseudomonas aeruginosa. Nature of the data set: Antibacterial activity against Pseudomonas aeruginosa ATCC 27853 assessed as inhibition of bacterial growth measured after 24 hrs by two-fold serial dilution method. The data set is classed as functional.

What is called MIC is the least concentration at which growth counts as inhibited. The HC50 is the concentration that lyses half of the red blood cells. Lower therefore signals more damage to red cells. `O=C(/C(=C/c1ccccc1Cl)n1cnc2cc(Cl)ccc2c1=O)c1nccs1`: the MIC in [1] was found to be 1 µg/mL (≈ 2.33 µM); in [2], 8 µg/mL (≈ 18.7 µM); in data set [4] it was 2 µg/mL (≈ 4.67 µM); in data set [5], 2 µg/mL (≈ 4.67 µM); in [6] it was 16 µg/mL (≈ 37.4 µM); in data set [7], 2 µg/mL (≈ 4.67 µM). Also, the minimal inhibitory concentration (MIC) came to 1 µg/mL (≈ 2.33 µM) in data set [8]; 512 µg/mL (≈ 1200 µM) in data set [9]; 4 µg/mL (≈ 9.34 µM) in data set [10]; 4 µg/mL (≈ 9.34 µM) in data set [11]; 2 µg/mL (≈ 4.67 µM) in [12]. In data set [3], this molecule yielded an HC50 at 2 h of 195 µg/mL.
Turning to `O=C(/C(=C/c1cccs1)n1cnc2cc(Cl)ccc2c1=O)c1nccs1`, the MIC in data set [1] was determined as 16 µg/mL (≈ 40 µM); in data set [2], 512 µg/mL (≈ 1280 µM); in data set [4], 32 µg/mL (≈ 80 µM); in data set [5] it was 64 µg/mL (≈ 160 µM); in data set [6], 16 µg/mL (≈ 40 µM); in data set [7], 512 µg/mL (≈ 1280 µM). The MIC was found to be 512 µg/mL (≈ 1280 µM) in data set [8]; 512 µg/mL (≈ 1280 µM) in data set [9]; 32 µg/mL (≈ 80 µM) in data set [10]; 16 µg/mL (≈ 40 µM) in data set [11]; 64 µg/mL (≈ 160 µM) in [12]. For the same molecule, the HC50 at 2 h in [3] is 211 µg/mL.
As to `O=C(/C(=C/c1cccc(Cl)c1)n1cnc2cc(Cl)ccc2c1=O)c1nccs1`, the MIC in data set [1] was determined as 8 µg/mL (≈ 18.7 µM); in data set [2], 4 µg/mL (≈ 9.34 µM); in [4] it was 4 µg/mL (≈ 9.34 µM); in data set [5], 32 µg/mL (≈ 74.7 µM); in data set [6] it was 32 µg/mL (≈ 74.7 µM); in data set [7], 8 µg/mL (≈ 18.7 µM). Besides, the minimum inhibitory concentration (MIC) in data set [8] was found to be 128 µg/mL (≈ 299 µM); in [9], 1 µg/mL (≈ 2.33 µM); in data set [10], 128 µg/mL (≈ 299 µM); in [11], 8 µg/mL (≈ 18.7 µM); in data set [12], 4 µg/mL (≈ 9.34 µM). Besides, in data set [3], the HC50 at 2 h was greater than 250 µg/mL.
On to `CCn1cc(/C=C(/C(=O)c2nccs2)n2cnc3cc(Cl)ccc3c2=O)c2ccccc21`, for which the MIC in data set [1] was 512 µg/mL (≈ 1110 µM); in data set [2], 512 µg/mL (≈ 1110 µM); in data set [4], 512 µg/mL (≈ 1110 µM); in [5] it was 128 µg/mL (≈ 278 µM); in data set [6], 512 µg/mL (≈ 1110 µM); in data set [7], 512 µg/mL (≈ 1110 µM). Further, the MIC in data set [8] was determined as 512 µg/mL (≈ 1110 µM); in [9], 128 µg/mL (≈ 278 µM); in data set [10] it was 512 µg/mL (≈ 1110 µM); in data set [11] it was 1 µg/mL (≈ 2.17 µM); in data set [12] it was 32 µg/mL (≈ 69.4 µM). The molecule also yielded an HC50 at 2 h in data set [3] greater than 250 µg/mL.
Take `O=C(/C(=C/c1c[nH]c2cc(Cl)ccc12)n1cnc2cc(Cl)ccc2c1=O)c1nccs1`: the MIC in [1] is 2 µg/mL (≈ 4.28 µM); in data set [2] it was 64 µg/mL (≈ 137 µM); in data set [4], 2 µg/mL (≈ 4.28 µM); in data set [5], 256 µg/mL (≈ 548 µM); in data set [6], 512 µg/mL (≈ 1100 µM); in [7], 32 µg/mL (≈ 68.5 µM). Further, the MIC was determined as 2 µg/mL (≈ 4.28 µM) in data set [8]; 512 µg/mL (≈ 1100 µM) in data set [9]; 64 µg/mL (≈ 137 µM) in data set [10]; 2 µg/mL (≈ 4.28 µM) in data set [11]; 64 µg/mL (≈ 137 µM) in data set [12]. The molecule also gave an HC50 at 2 h in [3] greater than 250 µg/mL.
Take `O=C(/C(=C/c1ccc(F)cc1)n1cnc2cc(Cl)ccc2c1=O)c1nccs1`: the MIC in data set [1] came out at 4 µg/mL (≈ 9.71 µM); in [2], 16 µg/mL (≈ 38.8 µM); in data set [4], 4 µg/mL (≈ 9.71 µM); in [5] it was 2 µg/mL (≈ 4.86 µM); in data set [6], 8 µg/mL (≈ 19.4 µM); in data set [7], 4 µg/mL (≈ 9.71 µM). Further, the MIC in [8] came out at 4 µg/mL (≈ 9.71 µM); in data set [9], 256 µg/mL (≈ 622 µM); in data set [10], 512 µg/mL (≈ 1240 µM); in data set [11], 2 µg/mL (≈ 4.86 µM); in data set [12], 2 µg/mL (≈ 4.86 µM). This molecule gave an HC50 at 2 h in data set [3] greater than 250 µg/mL.
In the case of `O=C(/C(=C/c1ccco1)n1cnc2cc(Cl)ccc2c1=O)c1nccs1`, the MIC in data set [1] came out at 8 µg/mL (≈ 20.8 µM); in data set [2], 128 µg/mL (≈ 333 µM); in [4], 16 µg/mL (≈ 41.7 µM); in [5], 64 µg/mL (≈ 167 µM); in [6], 64 µg/mL (≈ 167 µM); in data set [7], 32 µg/mL (≈ 83.4 µM). The MIC in data set [8] came to 8 µg/mL (≈ 20.8 µM); in data set [9], 16 µg/mL (≈ 41.7 µM); in [10], 64 µg/mL (≈ 167 µM); in [11], 8 µg/mL (≈ 20.8 µM); in data set [12], 32 µg/mL (≈ 83.4 µM). The same molecule registered an HC50 at 2 h in data set [3] greater than 250 µg/mL.
Turning to `Cc1ccc(/C=C(/C(=O)c2nccs2)n2cnc3cc(Cl)ccc3c2=O)c(C)c1`, the MIC in [1] was found to be 512 µg/mL (≈ 1210 µM); in data set [2] it was 512 µg/mL (≈ 1210 µM); in data set [4], 64 µg/mL (≈ 152 µM); in [5], 64 µg/mL (≈ 152 µM); in data set [6] it was 512 µg/mL (≈ 1210 µM); in data set [7], 512 µg/mL (≈ 1210 µM). The MIC in data set [8] was found to be 512 µg/mL (≈ 1210 µM); in data set [9], 128 µg/mL (≈ 303 µM); in data set [10], 512 µg/mL (≈ 1210 µM); in data set [11], 4 µg/mL (≈ 9.48 µM); in [12] it was 64 µg/mL (≈ 152 µM). Moreover, the HC50 at 2 h in data set [3] amounted to 203 µg/mL.
